1 compound from US11939345B2, “Physiologically stable fluorophore and performing fluorescence probing” (Government of the United States of America, as represented …, priority 2019, dated 2024) can be followed below.

Structures are written as SMILES.

The nature of data set [1]: pH stability of fluorescence intensity. It counts as physicochemical. Conditions: Example 2; FIG. 22B. How it is done:
With regard to assessment of photoluminescence properties of labeled CNF, photoluminescence excitation (PLE) spectroscopy maps and line scans were obtained with spectrofluorometer and corrected for the instrument's source spectral distribution and detector spectral response. Excitation wavelengths were scanned in 5 nm increments using a 450 W xenon lamp through a 2 nm slit. Emitted light was collected at 90° and measured using a liquid N2-cooled InGaAs detector over 2 nm increments through a 2 nm slit. The fluorescence emission spectra of mDTEB-CNF and mDTEB-seCNF were created using an excitation wavelength (λEx) of 514 nm with emission wavelengths from 530 nm to 650 nm. […] The pH stability of mDTEB-CNF and mDTEB-seCNF were evaluated by measuring fluorescence intensity using a Nanolog-3 spectrofluorometer. Buffered solutions containing 0.5 mg/mL labeled CNF in the range of pH 2 to 10 were equilibrated to 37° C., and the fluorescence intensity was measured at λEm 540 nm. […] The photoluminescence spectra of autoclaved washed fibers, the collected supernatants, and the controls were recorded using the spectrofluorometer as described above. The concentration-dependence of the labeled CNF fluorescence was assessed by measuring the fluorescence intensity of labeled CNF diluted to concentrations between 2 μg/mL and 2 mg/mL using PBS buffer or deionized water. […]

Data set [2] is described as follows: Photoluminescence excitation/emission and absorption spectra. The class given is physicochemical. How it is done:
With regard to assessment of photoluminescence properties of labeled CNF, photoluminescence excitation (PLE) spectroscopy maps and line scans were obtained with spectrofluorometer and corrected for the instrument's source spectral distribution and detector spectral response. Excitation wavelengths were scanned in 5 nm increments using a 450 W xenon lamp through a 2 nm slit. Emitted light was collected at 90° and measured using a liquid N2-cooled InGaAs detector over 2 nm increments through a 2 nm slit. The fluorescence emission spectra of mDTEB-CNF and mDTEB-seCNF were created using an excitation wavelength (λEx) of 514 nm with emission wavelengths from 530 nm to 650 nm. An excitation plot was created with an emission wavelength (λEm) of 540 nm with excitation wavelengths from 400 nm to 530 nm. The UV-Vis absorption spectra were collected with a UV-Vis-NIR spectrophotometer. The pH stability of mDTEB-CNF and mDTEB-seCNF were evaluated by measuring fluorescence intensity using a Nanolog-3 spectrofluorometer. Buffered solutions containing 0.5 mg/mL labeled CNF in the range of pH 2 to 10 were equilibrated to 37° C., and the fluorescence intensity was measured at λEm 540 nm. […] The photoluminescence spectra of autoclaved washed fibers, the collected supernatants, and the controls were recorded using the spectrofluorometer as described above. The concentration-dependence of the labeled CNF fluorescence was assessed by measuring the fluorescence intensity of labeled CNF diluted to concentrations between 2 μg/mL and 2 mg/mL using PBS buffer or deionized water. Fluorescence intensity was recorded on a multimode microplate reader equipped with monochromator optics at λEx 514 nm and λEm 540 nm. […] Each suspension was measured in triplicate using 200 μL samples. […] For fluorescence images, dilute labeled CNF suspensions were deposited onto an ultraviolet ozone (UVO)-treated glass slides and dried at room temperature. […]
Photoluminescence properties (excitation and emission spectra) of the mDTEB dye and mDTEB-seCNF were recorded using fluorescence spectroscopy. […]

For `CCC1=C(C)C2=C(c3ccc(Oc4nc(Cl)nc(Cl)n4)cc3)c3c(C)c(CC)c(C)n3[B-](F)(F)[N+]2=C1C` [mDTEB, 10-(4-((4,6-dichloro-1,3,5-triazin-2-yl)oxy)phenyl)-2,8-diethyl-5,5-difluoro-1,3,7,9-tetramethyl-5H-414,514-dipyrrolo[1,2-c:2′,1′-f] [1,3,2]diazaborinine], the “emission intensity as a function of pH” value in data set [1] is on record as “stable to a wide range of pH values”. The Stokes shift in data set [2] turned out to be 36 nm. Further, in data set [2] (FIG. 22A, in water), the absorbance peak came out at 514 nm. In addition, the “maximum emission intensity wavelength / emission peak” value in data set [2] (fluorescence spectroscopy) turned out to be 540 nm.
